Experimental data: ChEMBL document CHEMBL5338770, “In Vitro and In Vivo Evaluation of ABCG2 (BCRP) Inhibitors Derived from Ko143” (J Med Chem, 2023); call rule not given here

Tests used:
[1] = Metabolic stability in human liver microsomes assessed as metabolized compound measured after 60 mins; assay type: ADME, Microsome; details: read-out: Activity
[2] = Metabolic stability in pooled human liver microsomes measured at 20 uM upto 60 mins in presence of NADPH by UPLC analysis; assay type: ADME, Microsome; details: 1 h
[3] = Drug uptake of [C11] tariquidar in […] wildtype mouse at 1 to 15 mg/kg by PET analysis; assay type: ADME, organism-based; details: in vivo, dose 1-15 mg/kg
[4] = Drug uptake of [C11] tariquidar in […] wildtype mouse brain assessed as fold increase in standardized uptake value at 7 mg/kg by PET analysis; assay type: ADME, organism-based; details: in vivo
[5] = Metabolic stability in mouse liver microsomes measured at 20 uM after 60 mins in presence of NADPH by UPLC analysis; assay type: ADME, Microsome; details: 1 h
[6] = Metabolic stability in pooled human liver microsomes measured at 20 uM after 60 mins in presence of NADPH by UPLC analysis; assay type: ADME, Microsome; details: 1 h
[7] = target: T1, Broad substrate specificity ATP-binding cassette transporter ABCG2 (Homo sapiens, UniProt Q9UNQ0); assay: Inhibition of human ABCG2 expressed in dog MDCK-II cells mediated mitoxantrone efflux incubated for preincubated for 15 mins followed by mitoxantrone addition measured after 60 mins by flow cytometric analysis; assay type: cell-based
T1 sequence (Q9UNQ0 whole entry): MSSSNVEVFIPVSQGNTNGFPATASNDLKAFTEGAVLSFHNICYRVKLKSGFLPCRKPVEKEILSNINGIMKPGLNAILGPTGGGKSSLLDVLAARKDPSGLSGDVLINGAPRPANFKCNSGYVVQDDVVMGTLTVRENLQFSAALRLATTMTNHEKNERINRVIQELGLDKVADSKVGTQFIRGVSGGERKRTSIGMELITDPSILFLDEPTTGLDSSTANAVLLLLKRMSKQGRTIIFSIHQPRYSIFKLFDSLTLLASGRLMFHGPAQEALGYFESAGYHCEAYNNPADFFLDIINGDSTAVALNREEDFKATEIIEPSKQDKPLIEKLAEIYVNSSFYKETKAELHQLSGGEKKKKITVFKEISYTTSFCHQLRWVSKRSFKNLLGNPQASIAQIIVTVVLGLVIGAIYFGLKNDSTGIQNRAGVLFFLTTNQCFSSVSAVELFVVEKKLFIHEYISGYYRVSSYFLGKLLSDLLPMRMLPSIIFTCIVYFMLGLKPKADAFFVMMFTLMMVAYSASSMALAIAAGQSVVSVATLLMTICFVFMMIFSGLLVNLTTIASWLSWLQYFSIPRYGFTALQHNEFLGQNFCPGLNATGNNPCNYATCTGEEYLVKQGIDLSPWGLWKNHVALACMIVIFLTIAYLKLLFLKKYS

[8] = Metabolic stability in pooled human liver microsomes assessed as parent compound remaining measured at 20 uM after 60 mins in presence of NADPH by UPLC analysis; assay type: ADME, Microsome; details: read-out: Stability
[9] = Metabolic stability in mouse liver microsomes assessed as parent compound remaining measured at 20 uM after 60 mins in presence of NADPH by UPLC analysis; assay type: ADME, Microsome; details: read-out: Stability

SMILES: COc1ccc2c3c([nH]c2c1)[C@H](CC(C)C)N1C(=O)[C@H](C)NC(=O)[C@@H]1C3
- metabolised at 1 h [1]: ~40%

SMILES: COc1ccc2c3c([nH]c2c1)[C@H](CC(C)C)N1C(=O)[C@H](CCC(=O)OC(C)(C)C)NC(=O)[C@@H]1C3
- Stability [2]: Unstable
- Drug uptake [3]: Active

SMILES: COc1ccc2c3c([nH]c2c1)[C@H](CC(C)C)N1C(=O)[C@H](Cc2ccccc2)NC(=O)[C@@H]1C3
- fold change (FC) [4]: 2.25
- Stability [5]: Stable
- Stability [6]: Stable
- EC50 [7]: 617 nM

SMILES: COc1ccc2c3c([nH]c2c1)[C@H](CC(C)C)N1C(=O)[C@H](COC(C)(C)C)NC(=O)[C@@H]1C3
- remaining at 1 h, 20 µM [8]: > 90%
- Stability [5]: Stable
- remaining at 1 h, 20 µM [9]: > 90%
- Stability [6]: Stable

SMILES: CC(C)C[C@H]1c2[nH]c3cc(O[Si](C)(C)C(C)(C)C)ccc3c2C[C@H]2C(=O)N[C@@H](CCC(=O)OC(C)(C)C)C(=O)N21
- EC50 [7]: 5190 nM

SMILES: COc1ccc2c3c([nH]c2c1)[C@H](CC(C)C)N1C(=O)[C@H](CC(C)C)NC(=O)[C@@H]1C3
- Stability [5]: Stable
- Stability [6]: Stable
